From patent US20250026724A1, “(1,4,5-TRISUBSTITUTED 1H-PYRAZOL-3-YL)OXY-2-ALKYLTHIOALKYL ACIDS AND -ALKYL ACID DERIVATIVES, SALTS THEREOF AND USE THEREOF AS ACTIVE HERBICIDAL INGREDIENTS” (BAYER AKTIENGESELLSCHAFT, priority 2021, published 2025)

Legend:
Experiment in all cases: Post-emergence herbicidal action, greenhouse pot trial
Type in all cases: in vivo
[1] = tested on: Abutilon theophrasti (ABUTH); conditions: visual rating after about 3 weeks; for pest or weed control at 320 g/ha: read-out: Post-emergence effect at 320 g/ha against ABUTH in %
Experimental: (§1) Seeds of monocotyledonous and dicotyledonous weeds and crop plants are placed in sandy loam in plastic or organic planting pots, covered with soil and cultivated in a greenhouse under controlled growth conditions. 2 to 3 weeks after sowing, the trial plants are treated at the one-leaf stage. The compounds of the invention, formulated in the form of wettable powders (WP) or as emulsion concentrates (EC), are then sprayed onto the green parts of the plants as aqueous suspension or emulsion with addition of 0.5% additive at a water application rate equivalent to 600 l/ha. After about 3 weeks of keeping the trial plants in the greenhouse under optimum growth conditions, the effect of the preparations is rated visually in comparison to untreated controls. For example, 100% activity=the plants have died, 0% activity=like control plants.
(§2) Tables B1 to B14 below show the effects of selected compounds of the general formula (I) according to Table 1 on various harmful plants and at an application rate corresponding to 320 g/ha or lower, which were obtained by the trial procedure specified above. The appendices “a”, “b” and “c” give differentiation by dosage used with otherwise the same harmful plants tested.
(§3) As shown by results from Tables B1 to B19, inventive compounds of the general formula (I) in the case of post-emergence treatment have good herbicidal efficacy against harmful plants, for example Abutilon theophrasti (ABUTH), Alopecurus myosuroides (ALOMY), Amaranthus retroflexus (AMARE), Avena fatua (AVEFA), Digitaria sanguinalis (DIGSA), Echinochloa crus-galli (ECHCG), Bassia scoparia (KCHSC), Lolium rigidum (LOLRI), Matricaria inodora (MATIN), Pharbitis purpurea (PHBPU), Polygonum convolvulus (POLCO), Setaria viridis (SETVI), Veronica persica (VERPE) and Viola tricolor (VIOTR) at an application rate of 320 g of active substance or less per hectare, and good crop plant compatibility in the case of organisms such as Oryza sativa (ORYSA), Zea mays (ZEAMX), Brassica napus (BRSNW), Glycine max (GLXMA) and Triticum aestivum (TRZAS) at an application rate of 320 g or less per hectare.

[2] = tested on: Alopecurus myosuroides (ALOMY); conditions: Alopecurus myosuroides, 504 h, 320 g/ha, visual rating after about 3 weeks, read-out: Post-emergence effect at 320 g/ha against ALOMY in %
Experimental: as §1, §2, §3

[3] = tested on: Amaranthus retroflexus (AMARE); conditions: visual rating after about 3 weeks; for pest or weed control at 80 g/ha / pest or weed control at 320 g/ha: Amaranthus retroflexus, 504 h; for pest or weed control at 80 g/ha: read-out: Post-emergence effect at 80 g/ha against AMARE in %; for pest or weed control at 320 g/ha: read-out: Post-emergence effect at 320 g/ha against AMARE in %
Experimental: as §1, §2, §3

Avena fatua (AVEFA) = conditions: 320 g/ha, visual rating after about 3 weeks; for pest or weed control at 320 g/ha: Avena fatua, 504 h, read-out: Post-emergence effect at 320 g/ha against AVEFA in %
Experimental: as §1, §2, §3

Bassia scoparia (KCHSC) = conditions: 320 g/ha; for pest or weed control at 320 g/ha: Bassia scoparia, 504 h, read-out: Post-emergence effect against KCHSC
Experimental: as §1, §2, §3

[4] = tested on: Digitaria sanguinalis (DIGSA); conditions: visual rating after about 3 weeks; for pest or weed control at 320 g/ha: Digitaria sanguinalis, 504 h, read-out: Post-emergence effect at 320 g/ha against DIGSA in %
Experimental: as §1, §2, §3

[5] = tested on: Echinochloa crus-galli (ECHCG); conditions: visual rating after about 3 weeks; for pest or weed control at 80 g/ha / pest or weed control at 320 g/ha: Echinochloa crus-galli, 504 h; for pest or weed control at 80 g/ha: read-out: Post-emergence effect at 80 g/ha against ECHCG in %; for pest or weed control at 320 g/ha: read-out: Post-emergence effect at 320 g/ha against ECHCG in %
Experimental: as §1, §2, §3

[6] = tested on: Matricaria inodora (MATIN); conditions: 320 g/ha, visual rating after about 3 weeks; for pest or weed control at 320 g/ha: Tripleurospermum inodorum, 504 h, read-out: Post-emergence effect at 320 g/ha against MATIN in %
Experimental: as §1, §2, §3

[7] = tested on: Pharbitis purpurea (PHBPU); conditions: visual rating after about 3 weeks; for pest or weed control at 320 g/ha / pest or weed control at 80 g/ha: Ipomoea purpurea, 504 h; for pest or weed control at 320 g/ha: read-out: Post-emergence effect at 320 g/ha against PHBPU in %; for pest or weed control at 80 g/ha: read-out: Post-emergence effect at 80 g/ha against PHBPU in %
Experimental: as §1, §2, §3

[8] = tested on: Polygonum convolvulus (POLCO); conditions: visual rating after about 3 weeks; for pest or weed control at 80 g/ha / pest or weed control at 320 g/ha: Fallopia convolvulus, 504 h; for pest or weed control at 80 g/ha: read-out: Post-emergence effect at 80 g/ha against POLCO in %; for pest or weed control at 320 g/ha: read-out: Post-emergence effect at 320 g/ha against POLCO in %
Experimental: as §1, §2, §3

Setaria viridis (SETVI) = conditions: visual rating after about 3 weeks; for pest or weed control at 320 g/ha: Setaria viridis, 504 h, read-out: Post-emergence effect at 320 g/ha against SETVI in %
Experimental: as §1, §2, §3

Viola tricolor (VIOTR) = conditions: for pest or weed control at 320 g/ha / pest or weed control at 80 g/ha: Viola tricolor, 504 h, read-out: Post-emergence effect against VIOTR
Experimental: as §1, §2, §3

Lolium rigidum (LOLRI) = conditions: Lolium rigidum, 504 h, 320 g/ha, visual rating after about 3 weeks, read-out: Post-emergence effect at 320 g/ha against LOLRI in %
Experimental: as §1, §2, §3

SMILES	pest or weed control at 320 g/ha [2]	pest or weed control at 320 g/ha [4]	pest or weed control at 320 g/ha [5]	pest or weed control at 320 g/ha (Lolium rigidum (LOLRI))	pest or weed control at 320 g/ha [6]	pest or weed control at 320 g/ha [7]	pest or weed control at 320 g/ha (Setaria viridis (SETVI))	pest or weed control at 320 g/ha (Viola tricolor (VIOTR); 320 g/ha)	pest or weed control at 320 g/ha ([1]; Abutilon theophrasti, 504 h)	pest or weed control at 320 g/ha [8]	pest or weed control at 80 g/ha (Viola tricolor (VIOTR); 80 g/ha)	further results
CSC(Oc1nn(-c2ncccc2F)c(-c2ccc(F)nc2)c1Br)C(=O)O (single isomer, unassigned) [Example I-25]	90%											Post-emergence effect at 320 g/ha against ABUTH in % [1]: 90%; Post-emergence effect at 320 g/ha against AMARE in % [3]: 90%; pest or weed control at 80 g/ha ([3]; 80 g/ha): 90%; Post-emergence effect at 320 g/ha against AVEFA in % (Avena fatua (AVEFA)): 90%; Post-emergence effect against KCHSC (Bassia scoparia (KCHSC)): 90%; Post-emergence effect at 80 g/ha against DIGSA in % [4]: 80%; Post-emergence effect at 320 g/ha against DIGSA in % [4]: 90%; Post-emergence effect at 320 g/ha against ECHCG in % [5]: 90%; pest or weed control at 80 g/ha [5]: 80%; Post-emergence effect at 320 g/ha against MATIN in % [6]: 80%; Post-emergence effect at 80 g/ha against PHBPU in % ([7]; 80 g/ha): 90%; Post-emergence effect at 320 g/ha against PHBPU in % [7]: 90%; Post-emergence effect at 320 g/ha against POLCO in % [8]: 80%; pest or weed control at 80 g/ha ([8]; 80 g/ha): 80%; Post-emergence effect at 320 g/ha against SETVI in % (Setaria viridis (SETVI)): 90%; Post-emergence effect against VIOTR (Viola tricolor (VIOTR); 320 g/ha): 90%
COC(=O)C(Oc1nn(-c2ncccc2F)c(-c2ccc(F)nc2)c1Br)SC (single isomer, unassigned) [Example I-27]												Post-emergence effect at 80 g/ha against ABUTH in % ([1]; 80 g/ha): 80%; Post-emergence effect at 320 g/ha against ABUTH in % [1]: 90%; Post-emergence effect at 80 g/ha against AMARE in % ([3]; 80 g/ha): 80%; Post-emergence effect at 320 g/ha against AMARE in % [3]: 80%; Post-emergence effect at 320 g/ha against AVEFA in % (Avena fatua (AVEFA)): 90%; pest or weed control at 320 g/ha (Bassia scoparia (KCHSC)): 80%; Post-emergence effect at 320 g/ha against DIGSA in % [4]: 90%; Post-emergence effect at 320 g/ha against ECHCG in % [5]: 90%; Post-emergence effect at 320 g/ha against MATIN in % [6]: 80%; Post-emergence effect at 320 g/ha against PHBPU in % [7]: 100%; Post-emergence effect at 20 g/ha against POLCO in % ([8]; 20 g/ha): 80%; Post-emergence effect at 80 g/ha against POLCO in % ([8]; 80 g/ha): 80%; Post-emergence effect at 320 g/ha against POLCO in % [8]: 90%; Post-emergence effect at 320 g/ha against SETVI in % (Setaria viridis (SETVI)): 90%; Post-emergence effect against VIOTR (Viola tricolor (VIOTR); 80 g/ha): 80%; Post-emergence effect against VIOTR (Viola tricolor (VIOTR); 320 g/ha): 90%
CCOC(=O)C(Oc1nn(-c2ccccc2F)c(-c2ccc(F)nc2)c1Br)SC (single isomer, unassigned) [Example I-30]	90%	90%	80%	80%	80%	80%	80%	90%				Post-emergence effect at 80 g/ha against DIGSA in % [4]: 80%; pest or weed control at 80 g/ha [5]: 80%
CCOC(=O)C(Oc1nn(-c2ccccc2)c(-c2ccc(F)nc2)c1Br)SC (centres unmarked) [Example I-04]		80%	80%	90%	90%		90%	90%	80%	90%	80%	pest or weed control at 80 g/ha ([8]; 80 g/ha): 80%
CCOC(=O)C(Oc1nn(-c2cnccn2)c(-c2ccc(F)nc2)c1Cl)SC (centres unmarked) [Example I-16]	80%		80%			80%				80%		
CCOC(=O)C(Oc1nn(-c2ncccc2F)c(-c2ccc(F)nc2)c1Cl)SC (centres unmarked) [Example I-19]		80%	100%	100%	90%	90%	90%	100%	90%	90%	90%	pest or weed control at 80 g/ha ([3]; 80 g/ha): 80%; pest or weed control at 320 g/ha [3]: 90%; pest or weed control at 320 g/ha (Avena fatua (AVEFA)): 100%; pest or weed control at 80 g/ha ([7]; 80 g/ha): 80%
CSC(Oc1nn(-c2ncccc2F)c(-c2ccc(F)nc2)c1Cl)C(=O)O (centres unmarked) [Example I-31]	80%	80%	90%		80%	80%	80%			80%		pest or weed control at 320 g/ha [3]: 80%; pest or weed control at 320 g/ha (Avena fatua (AVEFA)): 80%; pest or weed control at 80 g/ha [5]: 80%
CSC(Oc1nn(-c2cnccn2)c(-c2ccc(F)nc2)c1Br)C(=O)O (centres unmarked) [Example I-36]	90%					90%		80%	80%	90%		pest or weed control at 320 g/ha (Bassia scoparia (KCHSC)): 90%
CSC(Oc1nn(-c2cnccn2)c(-c2ccc(F)nc2)c1Cl)C(=O)O (centres unmarked) [Example I-37]	90%					90%		80%	80%	90%		pest or weed control at 320 g/ha (Bassia scoparia (KCHSC)): 90%
COC(=O)C(Oc1nn(-c2ccccc2F)c(-c2ccc(F)nc2)c1I)SC (centres unmarked) [Example I-52]		80%	90%	100%	80%		90%	90%	80%	90%	80%	pest or weed control at 320 g/ha [3]: 90%; Post-emergence effect at 80 g/ha against SETVI in % (Setaria viridis (SETVI); 80 g/ha): 80%
COC(=O)C(Oc1nn(-c2ncccc2F)c(-c2ccc(F)nc2)c1C1CC1)SC (centres unmarked) [Example I-59]			90%	90%		90%		80%	90%		80%	pest or weed control at 80 g/ha ([1]; Abutilon theophrasti, 504 h, 80 g/ha, read-out: Post-emergence effect at 80 g/ha against ABUTH in %): 80%; pest or weed control at 320 g/ha (Avena fatua (AVEFA)): 90%; pest or weed control at 80 g/ha ([7]; 80 g/ha): 90%
